Reference: patent publication US11771738B2 (Zoetis Services LLC, priority 2018, dated 2023)
Like-named read-outs stand apart in the source and are kept apart here.

Tests used:
Assay type in all cases: cell-based
[1] = system: microfilariae of Dirofilaria immitis; assay: Dirofilaria immitis, Microfilaria (DiMf) In Vitro Assay; details: Dirofilaria immitis, 72 h, read-out: DiMf MED, Minimum Effective Dose, D. immitis microfilariae motility, in vitro
D. immitis L4 larvae = assay: Dirofilaria immitis, L4 Stage (DiL4) In Vitro Assay; details: for minimal effective concentration: Dirofilaria immitis, 72 h, read-out: DiL4 MED, Minimum Effective Dose, D. immitis L4 larvae motility, in vitro; for DiMf/DiL4: larval stage selectivity, ratio of DiMf MED to DiL4 MED
[2] = system: third stage larvae of Haemonchus contortus; assay: Haemonchus contortus, Larvae Stage 3 (HcL3) In Vitro Assay; details: Haemonchus contortus, 96 h
[3] = read-out: HcL3 MED, Minimum Effective Dose, H. contortus third stage larvae, approximately 96 hours
[4] = read-out: HcL3 MED, Haemonchus contortus third stage larvae in vitro, class mark appended to the Ex # in Table 3
[5] = read-out: HcL3 MED, approximately 96 hours incubation, multiple-resistant field isolate

Row | SMILES | minimal effective concentration [1] | minimal effective concentration (D. immitis L4 larvae) | DiMf/DiL4 (D. immitis L4 larvae) | minimal effective concentration [2, 3] | minimal effective concentration [2, 4] | minimal effective concentration [2, 5]
1 | Cc1ccc(Cc2ccc(C[C@H]3OC(=O)[C@H](CC(C)C)N(C)C(=O)[C@@H](C)OC(=O)[C@H](CC(C)C)N(C)C(=O)[C@@H](Cc4ccc(Cc5ccc(C)nc5C)cc4)OC(=O)[C@H](CC(C)C)N(C)C(=O)[C@@H](C)OC(=O)[C@H](CC(C)C)N(C)C3=O)cc2)c(C)n1 [Example 3-240, (3S,6R,9S,12R,15S,18R,21S,24R)-6,18-bis(4-((2,6-dimethylpyridin-3-yl)methyl)benzyl)-3,9,15,21-tetraisobutyl-4,10,12,16,22,24-hexamethyl-1,7,13,19-tetraoxa-4,10,16,22-tetraazacyclotetracosan-2,5,8,11,14,17,20,23-octaone] | 0.02 µM | 0.001 µM | 20 | 5.7 µM |  | 
2 | Cc1[nH]ncc1Cc1ccc(C[C@H]2OC(=O)[C@H](CC(C)C)N(C)C(=O)[C@@H](C)OC(=O)[C@H](CC(C)C)N(C)C(=O)[C@@H](Cc3ccc(Cc4cn[nH]c4C)cc3)OC(=O)[C@H](CC(C)C)N(C)C(=O)[C@@H](C)OC(=O)[C@H](CC(C)C)N(C)C2=O)cc1 [Example 3-243, (3S,6R,9S,12R,15S,18R,21S,24R)-3,9,15,21-tetraisobutyl-4,6,10,16,18,22-hexamethyl-12,24-bis(4-((5-methyl-1H-pyrazol-4-yl)methyl)benzyl)-1,7,13,19-tetraoxa-4,10,16,22-tetraazacyclotetracosan-2,5,8,11,14,17,20,23-octaone] | 0.001 µM | 0.001 µM | 1 | 7.5 µM |  | 
3 | COc1cnc(C(C)(F)c2ccc(C[C@H]3OC(=O)[C@H](CC(C)C)N(C)C(=O)[C@@H](C)OC(=O)[C@H](CC(C)C)N(C)C(=O)[C@@H](Cc4ccc(C(C)(F)c5cnc(OC)cn5)cc4)OC(=O)[C@H](CC(C)C)N(C)C(=O)[C@@H](C)OC(=O)[C@H](CC(C)C)N(C)C3=O)cc2)cn1 (stereo partly drawn) [Example 3-252, (3S,6R,9S,12R,15S,18R,21S,24R)-6,18-bis(4-(1-fluoro-1-(5-methoxypyrazin-2-yl)ethyl)benzyl)-3,9,15,21-tetraisobutyl-4,10,12,16,22,24-hexamethyl-1,7,13,19-tetraoxa-4,10,16,22-tetraazacyclotetracosan-2,5,8,11,14,17,20,23-octaone] | 0.02 µM | 0.0007 µM | 28.6 | > 42 µM |  | 
4 | CCn1nccc1Cc1ccc(C[C@H]2OC(=O)[C@H](CC(C)C)N(C)C(=O)[C@@H](C)OC(=O)[C@H](CC(C)C)N(C)C(=O)[C@@H](Cc3ccc(Cc4ccnn4CC)cc3)OC(=O)[C@H](CC(C)C)N(C)C(=O)[C@@H](C)OC(=O)[C@H](CC(C)C)N(C)C2=O)cc1 [Example 3-253, (3S,6R,9S,12R,15S,18R,21S,24R)-6,18-bis(4-((1-ethyl-1H-pyrazol-5-yl)methyl)benzyl)-3,9,15,21-tetraisobutyl-4,10,12,16,22,24-hexamethyl-1,7,13,19-tetraoxa-4,10,16,22-tetraazacyclotetracosan-2,5,8,11,14,17,20,23-octaone] | 0.0003 µM | 0.001 µM | 0.3 | 1 µM | < 1 µM | ≤ 1 µM
5 | CC(C)C[C@H]1C(=O)O[C@H](Cc2ccc(Cc3cnsc3)cc2)C(=O)N(C)[C@@H](CC(C)C)C(=O)O[C@H](C)C(=O)N(C)[C@@H](CC(C)C)C(=O)O[C@H](Cc2ccc(Cc3cnsc3)cc2)C(=O)N(C)[C@@H](CC(C)C)C(=O)O[C@H](C)C(=O)N1C [Example 3-254, (3S,6R,9S,12R,15S,18R,21S,24R)-3,9,15,21-tetraisobutyl-6,18-bis(4-(isothiazol-4-ylmethyl)benzyl)-4,10,12,16,22,24-hexamethyl-1,7,13,19-tetraoxa-4,10,16,22-tetraazacyclotetracosan-2,5,8,11,14,17,20,23-octaone] | 0.003 µM | 0.001 µM | 3 | 10 µM |  | 
6 | COC(c1ccc(C[C@H]2OC(=O)[C@H](CC(C)C)N(C)C(=O)[C@@H](C)OC(=O)[C@H](CC(C)C)N(C)C(=O)[C@@H](Cc3ccc(C(OC)c4ccc(O)nc4)cc3)OC(=O)[C@H](CC(C)C)N(C)C(=O)[C@@H](C)OC(=O)[C@H](CC(C)C)N(C)C2=O)cc1)c1ccc(O)nc1 (stereo partly drawn) [Example 3-259, (3S,6R,9S,12R,15S,18R,21S,24R)-6,18-bis(4-((6-hydroxypyridin-3-yl)(methoxy)methyl)benzyl)-3,9,15,21-tetraisobutyl-4,10,12,16,22,24-hexamethyl-1,7,13,19-tetraoxa-4,10,16,22-tetraazacyclotetracosan-2,5,8,11,14,17,20,23-octaone] | 0.01 µM | 0.0005 µM | 20 | 3.3 µM | 1 to 3.3 µM | 
7 | COc1ncccc1C(C)c1ccc(C[C@H]2OC(=O)[C@H](CC(C)C)N(C)C(=O)[C@@H](C)OC(=O)[C@H](CC(C)C)N(C)C(=O)[C@@H](Cc3ccc(C(C)c4cccnc4OC)cc3)OC(=O)[C@H](CC(C)C)N(C)C(=O)[C@@H](C)OC(=O)[C@H](CC(C)C)N(C)C2=O)cc1 (stereo partly drawn) [Example 3-261, (3S,6R,9S,12R,15S,18R,21S,24R)-3,9,15,21-tetraisobutyl-6,18-bis(4-(1-(2-methoxypyridin-3-yl)ethyl)benzyl)-4,10,12,16,22,24-hexamethyl-1,7,13,19-tetraoxa-4,10,16,22-tetraazacyclotetracosan-2,5,8,11,14,17,20,23-octaone] | 0.03 µM | < 0.0001 µM | >300 | > 100 µM |  | 
8 | CC(C)C[C@H]1C(=O)O[C@H](Cc2ccc(Cc3ccnn3C3CC3)cc2)C(=O)N(C)[C@@H](CC(C)C)C(=O)O[C@H](C)C(=O)N(C)[C@@H](CC(C)C)C(=O)O[C@H](Cc2ccc(Cc3ccnn3C3CC3)cc2)C(=O)N(C)[C@@H](CC(C)C)C(=O)O[C@H](C)C(=O)N1C [Example 3-268, (3S,6R,9S,12R,15S,18R,21S,24R)-6,18-bis(4-((1-cyclopropyl-1H-pyrazol-5-yl)methyl)benzyl)-3,9,15,21-tetraisobutyl-4,10,12,16,22,24-hexamethyl-1,7,13,19-tetraoxa-4,10,16,22-tetraazacyclotetracosan-2,5,8,11,14,17,20,23-octaone] | 0.002 µM | 0.0005 µM | 4 | 1 µM | < 1 µM | ≤ 1 µM
9 | Cc1ncccc1Cc1ccc(C[C@@H]2OC(=O)[C@H](CC(C)C)N(C)C(=O)[C@@H](C)OC(=O)[C@@H](CC(C)C)N(C)C(=O)[C@@H](Cc3ccc(Cc4cccnc4C)cc3)OC(=O)[C@@H](CC(C)C)N(C)C(=O)[C@@H](C)OC(=O)[C@H](CC(C)C)N(C)C2=O)cc1 [Example 3-273, (3S,6R,9R,12R,15R,18R,21S,24S)-3,9,15,21-tetraisobutyl-4,6,10,16,18,22-hexamethyl-12,24-bis[[4-[(2-methyl-3-pyridyl)methyl]phenyl]methyl]-1,7,13,19-tetraoxa-4,10,16,22-tetrazacyclotetracosane-2,5,8,11,14,17,20,23-octaone] | 0.002 µM | 0.0003 µM | 6.7 | 1 µM | < 1 µM | ≤ 1 µM
10 | CC(C)C[C@H]1C(=O)O[C@H](Cc2ccc(Cc3ccnn3CC3CC3)cc2)C(=O)N(C)[C@@H](CC(C)C)C(=O)O[C@H](C)C(=O)N(C)[C@@H](CC(C)C)C(=O)O[C@H](Cc2ccc(Cc3ccnn3CC3CC3)cc2)C(=O)N(C)[C@@H](CC(C)C)C(=O)O[C@H](C)C(=O)N1C [Example 3-275, (3S,6R,9S,12R,15S,18R,21S,24R)-6,18-bis(4-((1-(cyclopropylmethyl)-1H-pyrazol-5-yl)methyl)benzyl)-3,9,15,21-tetraisobutyl-4,10,12,16,22,24-hexamethyl-1,7,13,19-tetraoxa-4,10,16,22-tetraazacyclotetracosan-2,5,8,11,14,17,20,23-octaone] | 0.01 µM | 0.001 µM | 10 | 1.8 µM | 1 to 3.3 µM | 
11 | COc1ccncc1Cc1ccc(C[C@H]2OC(=O)[C@H](CC(C)C)N(C)C(=O)[C@@H](C)OC(=O)[C@H](CC(C)C)N(C)C(=O)[C@@H](Cc3ccc(Cc4cnccc4OC)cc3)OC(=O)[C@H](CC(C)C)N(C)C(=O)[C@@H](C)OC(=O)[C@H](CC(C)C)N(C)C2=O)cc1 [Example 3-282, (3S,6R,9S,12R,15S,18R,21S,24R)-3,9,15,21-tetraisobutyl-6,18-bis(4-((4-methoxypyridin-3-yl)methyl)benzyl)-4,10,12,16,22,24-hexamethyl-1,7,13,19-tetraoxa-4,10,16,22-tetraazacyclotetracosan-2,5,8,11,14,17,20,23-octaone] | 0.005 µM | 0.001 µM | 5 | 30 µM |  | 
12 | CC(C)C[C@H]1C(=O)O[C@H](Cc2ccc(Cc3cncnc3C(C)C)cc2)C(=O)N(C)[C@@H](CC(C)C)C(=O)O[C@H](C)C(=O)N(C)[C@@H](CC(C)C)C(=O)O[C@H](Cc2ccc(Cc3cncnc3C(C)C)cc2)C(=O)N(C)[C@@H](CC(C)C)C(=O)O[C@H](C)C(=O)N1C [Example 3-283, (3S,6R,9S,12R,15S,18R,21S,24R)-3,9,15,21-tetraisobutyl-6,18-bis(4-((4-isopropylpyrimidin-5-yl)methyl)benzyl)-4,10,12,16,22,24-hexamethyl-1,7,13,19-tetraoxa-4,10,16,22-tetraazacyclotetracosan-2,5,8,11,14,17,20,23-octaone] | 0.003 µM | 0.0005 µM | 6 | 1 µM | < 1 µM | ≤ 1 µM
